Assay results: ChEMBL document CHEMBL6092201, “Discovery of cyanoguanidine derivatives as biased μ-opioid receptor agonists” (2024)
The source made the active and inactive calls.

Legend:
Format in all cases: functional
[1] = molecular target: Mu-type opioid receptor (Homo sapiens) (UniProt P35372); experiment: Agonist activity at MOR (unknown origin) assessed as cAMP accumulation at 50 nM relative to control
[2] = molecular target: Mu-type opioid receptor (Homo sapiens) (UniProt P35372); experiment: Agonist activity at MOR (unknown origin) assessed as beta-arrestin2 recruitment at 50 uM incubated for 90 to 180 mins by chemiluminescence based microplate reader assay; details: time 90-180 min
[3] = molecular target: Mu-type opioid receptor (Homo sapiens) (UniProt P35372); experiment: Agonist activity at MOR (unknown origin) assessed as cAMP accumulation at 0.5 nM relative to control
Mus musculus = experiment: Analgesic activity in Kunming mouse assessed as increase in pain threshold at 10 mg/kg, po (reference value: 0.13 +/- 5.20 sec)
[4] = molecular target: Mu-type opioid receptor (Homo sapiens) (UniProt P35372); experiment: Agonist activity at MOR (unknown origin) assessed as beta-arrestin2 recruitment at 0.1 uM incubated for 90 to 180 mins by chemiluminescence based microplate reader assay relative to control; details: time 90-180 min
[5] = molecular target: Mu-type opioid receptor (Homo sapiens) (UniProt P35372); experiment: Agonist activity at MOR (unknown origin) assessed as beta-arrestin2 recruitment at 10 uM incubated for 90 to 180 mins by chemiluminescence based microplate reader assay relative to control; details: time 90-180 min
[6] = molecular target: Mu-type opioid receptor (Homo sapiens) (UniProt P35372); experiment: Agonist activity at MOR (unknown origin) assessed as beta-arrestin2 recruitment at 1 uM incubated for 90 to 180 mins by chemiluminescence based microplate reader assay relative to control; details: time 90-180 min

Mu-type opioid receptor (Homo sapiens), sequence (P35372 whole entry): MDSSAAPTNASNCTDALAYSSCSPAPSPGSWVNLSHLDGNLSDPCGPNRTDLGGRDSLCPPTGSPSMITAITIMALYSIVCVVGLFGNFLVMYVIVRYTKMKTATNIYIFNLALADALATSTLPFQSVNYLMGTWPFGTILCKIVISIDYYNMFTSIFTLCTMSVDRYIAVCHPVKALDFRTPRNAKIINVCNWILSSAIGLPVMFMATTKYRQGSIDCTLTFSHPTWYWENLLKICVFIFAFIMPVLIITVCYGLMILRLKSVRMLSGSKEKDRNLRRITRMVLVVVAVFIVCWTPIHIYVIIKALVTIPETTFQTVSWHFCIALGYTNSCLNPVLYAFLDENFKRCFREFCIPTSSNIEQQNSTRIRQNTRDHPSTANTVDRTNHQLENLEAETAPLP

## COc1ccccc1N/C(=N\C#N)NC[C@H](Cc1ccccc1)N(C)C
[1]
  Activity: 36.9%
[2]
  Activity: inactive
[3]
  Activity: 9.5%
Mus musculus
  Time: 7.34 s
[4]
  Activity: -0.8%
[5]
  Activity: 15.2%
[6]
  Activity: 2%

## CC(Cc1cccs1)N/C(=N\C#N)NC[C@H](Cc1ccccc1)N(C)C (stereo partly specified)
[1]
  Activity: 37.2%
[2]
  Activity: inactive
[3]
  Activity: 12.4%
Mus musculus
  Time: 21.8 s
[4]
  Activity: -0.9%
[5]
  Activity: 2%
[6]
  Activity: -0.4%

## CN(C)[C@H](CN/C(=N/C#N)NCCc1ccc(O)cc1)Cc1ccccc1
[1]
  Activity: 19.3%
[2]
  Activity: inactive
[3]
  Activity: 13.2%
Mus musculus
  Time: 6.82 s
[4]
  Activity: -0.9%
[5]
  Activity: -0.9%
[6]
  Activity: -0.7%

## CC(Cc1cc[nH]n1)N/C(=N\C#N)NC[C@H](Cc1ccccc1)N(C)C (stereo partly specified)
[1]
  Activity: -15.2%
[2]
  Activity: inactive
[3]
  Activity: -2.5%
Mus musculus
  Time: 15.44 s
[4]
  Activity: -0.4%
[5]
  Activity: -0.6%
[6]
  Activity: -0.7%

## CN(C)[C@H](CN/C(=N/C#N)Nc1ccccc1)Cc1ccccc1
[1]
  Activity: 23.1%
[2]
  Activity: inactive
[3]
  Activity: 2.1%
Mus musculus
  Time: 20.94 s
[4]
  Activity: -0.5%
[5]
  Activity: 15.9%
[6]
  Activity: 1.9%

## COc1cccc(CCN/C(=N\C#N)NC[C@H](Cc2ccccc2)N(C)C)c1
[1]
  Activity: 10.3%
[2]
  Activity: inactive
[3]
  Activity: 3.3%
Mus musculus
  Time: 12.47 s
[4]
  Activity: -1%
[5]
  Activity: 23%
[6]
  Activity: -0.6%

## CC(Cc1c[nH]cn1)N/C(=N\C#N)NC[C@H](Cc1ccccc1)N(C)C (stereo partly specified)
[1]
  Activity: 0.8%
[2]
  Activity: inactive
[3]
  Activity: -14.4%
Mus musculus
  Time: 11.38 s
[4]
  Activity: -0.5%
[5]
  Activity: 2.2%
[6]
  Activity: -0.1%

## COc1ccc(CN/C(=N\C#N)NC[C@H](Cc2ccc(O)cc2)N(C)C)cc1
[1]
  Activity: 19.8%
[2]
  Activity: inactive
[3]
  Activity: 18.5%
Mus musculus
  Time: 12.41 s
[4]
  Activity: -1%
[5]
  Activity: -0.9%
[6]
  Activity: -0.8%

## CC(Cc1cccnc1)N/C(=N\C#N)NC[C@H](Cc1ccccc1)N(C)C (stereo partly specified)
[1]
  Activity: 9.5%
[2]
  Activity: inactive
[3]
  Activity: 9.3%
Mus musculus
  Time: 15.75 s
[4]
  Activity: -1.1%
[5]
  Activity: -0.6%
[6]
  Activity: -0.9%

## COc1ccc2cc(CC(C)N/C(=N\C#N)NC[C@H](Cc3ccccc3)N(C)C)ccc2c1 (stereo partly specified)
[1]
  Activity: 23.6%
[2]
  Activity: inactive
[3]
  Activity: 15.2%
Mus musculus
  Time: 10.44 s
[4]
  Activity: -1%
[5]
  Activity: -1%
[6]
  Activity: -1%

## CN(C)[C@H](CN/C(=N/C#N)NCCc1cccc(F)c1)Cc1ccccc1
[1]
  Activity: 14.4%
[2]
  Activity: inactive
[3]
  Activity: 7.4%
Mus musculus
  Time: 8.86 s
[4]
  Activity: -0.7%
[5]
  Activity: 4.8%
[6]
  Activity: -0.3%

## CC(Cc1ccncc1)N/C(=N\C#N)NC[C@H](Cc1ccccc1)N(C)C (stereo partly specified)
[1]
  Activity: 8.6%
[2]
  Activity: inactive
[3]
  Activity: 2.9%
Mus musculus
  Time: 12.52 s
[4]
  Activity: -1.1%
[5]
  Activity: -0.5%
[6]
  Activity: -0.9%

## CN1CC[C@]23c4c5ccc(O)c4O[C@H]2[C@@H](O)C=C[C@H]3[C@H]1C5 [MORPHINE]
Mus musculus
  Time: 22.79 s

## CC(Cc1ccco1)N/C(=N\C#N)NC[C@H](Cc1ccccc1)N(C)C (stereo partly specified)
[1]
  Activity: 15.6%
[2]
  Activity: inactive
[3]
  Activity: 9.5%
Mus musculus
  Time: 7.57 s
[4]
  Activity: -1.3%
[5]
  Activity: -0.8%
[6]
  Activity: -1%

## CC(Cc1ccsc1)N/C(=N\C#N)NC[C@H](Cc1ccccc1)N(C)C (stereo partly specified)
[1]
  Activity: 9.1%
[2]
  Activity: inactive
[3]
  Activity: -0.8%
Mus musculus
  Time: 22.76 s
[4]
  Activity: -1%
[5]
  Activity: 1.9%
[6]
  Activity: -0.6%

## COc1ccccc1N/C(=N\C#N)NC[C@H](Cc1ccc(O)cc1)N(C)C
[1]
  Activity: 32.9%
[2]
  Activity: inactive
[3]
  Activity: 25.5%
Mus musculus
  Time: 7.76 s
[4]
  Activity: -1.2%
[5]
  Activity: -1%
[6]
  Activity: -1%

## CC(Cc1c[nH]c2ccccc12)N/C(=N\C#N)NC[C@H](Cc1ccccc1)N(C)C (stereo partly specified)
[1]
  Activity: 17.7%
[2]
  Activity: inactive
[3]
  Activity: 11.1%
Mus musculus
  Time: 11.63 s
[4]
  Activity: -0.9%
[5]
  Activity: -0.7%
[6]
  Activity: -0.9%

## CN(C)[C@H](CN/C(=N/C#N)NCCc1ccccc1)Cc1ccccc1
[1]
  Activity: 28%
[2]
  Activity: inactive
[3]
  Activity: 25.9%
Mus musculus
  Time: 19.93 s
[4]
  Activity: -0.9%
[5]
  Activity: 2%
[6]
  Activity: -0.2%

## COc1ccc(CN/C(=N\C#N)NC[C@H](Cc2ccccc2)N(C)C)cc1
[1]
  Activity: 14.4%
[2]
  Activity: inactive
[3]
  Activity: 2.9%
Mus musculus
  Time: 14.34 s
[4]
  Activity: -0.9%
[5]
  Activity: 0.9%
[6]
  Activity: -0.6%

## CC(Cc1ccc[nH]1)N/C(=N\C#N)NC[C@H](Cc1ccccc1)N(C)C (stereo partly specified)
[1]
  Activity: 24.3%
[2]
  Activity: inactive
[3]
  Activity: 5.8%
Mus musculus
  Time: 17.58 s
[4]
  Activity: -1%
[5]
  Activity: 7.9%
[6]
  Activity: -0.4%

## CN(C)[C@H](CN/C(=N/C#N)NCCc1ccccc1)Cc1ccc(O)cc1
[1]
  Activity: 4.1%
[2]
  Activity: inactive
[3]
  Activity: 8.6%
Mus musculus
  Time: 6.89 s
[4]
  Activity: -0.9%
[5]
  Activity: -0.7%
[6]
  Activity: -0.7%
